Test results reported in the supplement of paper PMC10307832.

How the values were obtained:
Experiment in all cases: relative viability (nuclei count vs DMSO), 5 days (fraction); higher = more cells survive
Ponatinib + Crizotinib = compound: Cc1ccc(C(=O)Nc2ccc(CN3CCN(C)CC3)c(C(F)(F)F)c2)cc1C#Cc1cnc2cccnn12 [Ponatinib] + C[C@@H](Oc1cc(-c2cnn(C3CCNCC3)c2)cnc1N)c1c(Cl)ccc(F)c1Cl [Crizotinib] (partner 1 µM)
In short: (§1)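 Nuclei were stained with Hoechst during a one-step fixation (final 0.05% Triton X-100, 1% formaldehyde, 1 ug/ml Hoechst) carried out 5 days after dosing, then counted on 4× images. The cells, lung cancer lines in 1536-well plates, had been dosed by pin tool the day after seeding with one drug alone or a fixed anchor-drug dose plus five library-drug doses (not always all listed) in √10 steps. Relative viability is the nuclei count in treated wells divided by that in vehicle wells, and each value is the median of duplicate plates.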

Ponatinib + Bortezomib = compound: Cc1ccc(C(=O)Nc2ccc(CN3CCN(C)CC3)c(C(F)(F)F)c2)cc1C#Cc1cnc2cccnn12 [Ponatinib] + CC(C)C[C@H](NC(=O)[C@H](Cc1ccccc1)NC(=O)c1cnccn1)B(O)O [Bortezomib] (partner 0.002 µM)
In short: as §1

Pazopanib + Bortezomib = compound: Cc1ccc(Nc2nccc(N(C)c3ccc4c(C)n(C)nc4c3)n2)cc1S(N)(=O)=O [Pazopanib] + CC(C)C[C@H](NC(=O)[C@H](Cc1ccccc1)NC(=O)c1cnccn1)B(O)O [Bortezomib] (partner 0.002 µM)
In short: as §1

Pazopanib + AZD7762 = compound: Cc1ccc(Nc2nccc(N(C)c3ccc4c(C)n(C)nc4c3)n2)cc1S(N)(=O)=O [Pazopanib] + NC(=O)Nc1cc(-c2cccc(F)c2)sc1C(=O)N[C@H]1CCCNC1 [AZD7762] (partner 0.2 µM)
In short: as §1

Row | Cell Line | relative viability (Ponatinib + Crizotinib; first compound 0.002 µM) | relative viability (Ponatinib + Crizotinib; first compound 0.006325 µM) | relative viability (Ponatinib + Crizotinib; first compound 0.06325 µM) | relative viability (Ponatinib + Crizotinib; first compound 0.2 µM) | relative viability (Ponatinib + Bortezomib; first compound 0.002 µM) | relative viability (Ponatinib + Bortezomib; first compound 0.006325 µM) | relative viability (Ponatinib + Bortezomib; first compound 0.06325 µM) | relative viability (Ponatinib + Bortezomib; first compound 0.2 µM) | relative viability (Pazopanib + Bortezomib; first compound 0.01 µM) | relative viability (Pazopanib + Bortezomib; first compound 0.03162 µM) | relative viability (Pazopanib + Bortezomib; first compound 0.1 µM) | relative viability (Pazopanib + Bortezomib; first compound 0.3162 µM) | relative viability (Pazopanib + Bortezomib; first compound 1 µM) | relative viability (Pazopanib + AZD7762; first compound 0.01 µM) | relative viability (Pazopanib + AZD7762; first compound 0.03162 µM) | relative viability (Pazopanib + AZD7762; first compound 0.1 µM) | relative viability (Pazopanib + AZD7762; first compound 0.3162 µM) | relative viability (Pazopanib + AZD7762; first compound 1 µM)
1 | NCI-H1975 | 0.929 | 1.02 | 1.01 | 0.943 | 0.353 | 0.296 | 0.338 | 0.36 | 0.356 | 0.346 | 0.461 | 0.464 | 0.448 | 0.612 | 0.667 | 0.637 | 0.76 | 0.692
2 | LU99A | 0.512 | 0.53 | 0.564 | 0.59 | 1.14 | 1.07 | 1.21 | 1.24 | 0.913 | 1.18 | 1.18 | 1.25 | 1.25 | – | 0.347 | 0.466 | 0.343 | 0.384
3 | NCI-H2405 | 0.75 | 0.917 | 0.821 | 0.732 | 0.931 | 1.05 | 0.944 | 0.93 | 0.925 | 0.981 | 0.997 | 0.982 | 0.982 | 0.718 | 0.772 | 0.702 | 0.751 | 0.74
4 | HCC-15 | 0.828 | 0.843 | 0.858 | 0.802 | 0.919 | 1.04 | 1.16 | 1 | 1.05 | 1.18 | 1.04 | 0.976 | 1.05 | 1.3 | 1.15 | 1.31 | 1.22 | 1.15
5 | HCC-44 | 0.752 | 0.799 | 0.908 | 0.808 | 0.825 | 0.804 | 1.07 | 0.872 | 0.942 | 0.877 | 0.891 | 0.899 | 0.989 | 1.07 | 0.979 | 0.979 | 1.01 | 0.982
6 | HCC-78 | 0.291 | 0.322 | 0.447 | 0.312 | 0.476 | 0.48 | 0.62 | 0.421 | 0.408 | 0.453 | 0.498 | 0.414 | 0.619 | – | 0.654 | 0.615 | 0.658 | 0.604
7 | NCI-H838 | 0.793 | 0.95 | 0.813 | 0.789 | 0.903 | 1.05 | 0.698 | 0.817 | 0.898 | 0.883 | 0.927 | 0.87 | 1.2 | 1.04 | 0.911 | 1.04 | 0.909 | 0.946
8 | NCI-H2087 | 0.669 | 0.654 | 0.839 | 0.853 | 0.57 | 0.566 | 0.74 | 0.688 | 0.979 | 0.909 | 0.804 | 0.798 | 0.879 | 1.36 | 1.23 | 1.47 | 1.18 | 1.12
9 | BEN | 0.838 | 0.824 | 0.804 | 0.794 | 0.643 | 0.843 | 0.85 | 0.672 | 0.581 | 0.725 | 0.76 | 0.917 | 0.874 | 0.592 | 0.75 | 0.607 | 0.775 | 0.786
10 | LCLC-103H | 1.03 | 1.13 | 1.17 | 1.03 | 1.05 | 1.12 | 1.23 | 1.25 | 0.942 | 0.869 | 1.11 | 1.04 | 1.24 | 0.576 | 0.805 | 0.897 | 0.792 | 0.822
11 | EKVX | 0.789 | 0.995 | 1.09 | 1.02 | 1.01 | 1.11 | 1.13 | 1.02 | 1.09 | 1.02 | 1 | 0.996 | 1.02 | 0.705 | 0.599 | 0.755 | 0.654 | 0.636
12 | LXF-289 | 0.769 | 0.825 | 0.821 | 0.792 | 0.946 | 0.996 | 1 | 0.98 | 0.998 | 1.02 | 0.993 | 0.91 | 0.956 | 1.26 | 1.15 | 1.12 | 1.11 | 1.06
13 | ABC-1 | 1.24 | 1.23 | 1.08 | 0.852 | 0.347 | 0.286 | 0.299 | 0.283 | 0.257 | 0.293 | 0.212 | 0.316 | 0.343 | 0.797 | 0.757 | – | – | 0.804
14 | NCI-H2085 | 0.837 | 0.704 | 0.939 | 0.842 | 0.98 | 1.15 | 1.25 | 1.03 | 1.04 | 1.09 | 1.01 | 1.02 | 1.13 | 0.98 | 0.988 | 0.928 | 0.952 | 1.06
15 | LC-2-ad | 0.482 | 0.417 | 0.418 | 0.421 | 0.964 | 1.01 | 0.911 | 0.875 | 0.977 | 1.08 | 1.02 | 0.956 | 1.12 | 0.834 | 0.835 | 0.906 | 0.92 | 0.85
16 | NCI-H1355 | 0.989 | 1.06 | 1.16 | 1.15 | 1.09 | 1.11 | 1.25 | 1.19 | – | 1.17 | 1.21 | 1.21 | 1.35 | 0.71 | 0.802 | 0.827 | 0.727 | 0.719
17 | H3255 | 0.861 | 0.916 | 0.951 | 0.727 | 0.659 | 0.792 | 0.806 | 0.76 | 0.695 | 0.723 | 0.75 | 1.06 | 0.92 | 0.897 | 0.906 | 0.847 | 0.883 | 0.913
18 | NCI-H1993 | 0.796 | 1.01 | 1.01 | 1 | 1.11 | 1.15 | 1.4 | 1.23 | 0.758 | 1.02 | 1.02 | 1.2 | 1.28 | – | 0.789 | 0.734 | 0.883 | 0.645
